PubChem BioAssay (NCI)
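Assay format: 96-well plates, 48-hour exposure. GI50: concentration for 50% inhibition of growth. At the TGI there is no net growth.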

Experiments:
Test in all cases: DTP human tumour cell line panel, 48 h
EKVX NSCLC = test system: EKVX NSCLC
SK-MEL-2 melanoma = test system: SK-MEL-2 melanoma
SK-OV-3 ovarian = test system: SK-OV-3 ovarian
SNB-19 CNS = test system: SNB-19 CNS
U251 CNS = test system: U251 CNS
UACC-257 melanoma = test system: UACC-257 melanoma
A549 NSCLC = test system: A549 NSCLC
DU-145 prostate = test system: DU-145 prostate
T-47D breast = test system: T-47D breast
HOP-92 NSCLC = test system: HOP-92 NSCLC

Compound	TGI (EKVX NSCLC)	TGI (SK-MEL-2 melanoma)	TGI (SK-OV-3 ovarian)	TGI (SNB-19 CNS)	TGI (U251 CNS)	TGI (UACC-257 melanoma)	GI50 (A549 NSCLC)	TGI (A549 NSCLC)	GI50 (DU-145 prostate)	TGI (DU-145 prostate)	GI50 (EKVX NSCLC)	GI50 (SK-MEL-2 melanoma)	GI50 (SK-OV-3 ovarian)	GI50 (SNB-19 CNS)	GI50 (T-47D breast)	TGI (T-47D breast)	GI50 (U251 CNS)	TGI (HOP-92 NSCLC)	GI50 (HOP-92 NSCLC)
O=S(OC12CC3CC(CC(C3)C1)C2)c1cc(Cl)cc(Cl)c1OCc1ccccc1 (configuration not stated)	> 100 µM	> 100 µM	> 100 µM	> 100 µM	> 100 µM	> 100 µM													
Nc1ccccc1.[C-]#[O+].[C-]#[O+].[C-]#[O+].[C-]#[O+].[C-]#[O+].[Cr]	> 10 µM	> 10 µM	> 10 µM	> 10 µM	> 10 µM		5.18 µM	> 10 µM	> 10 µM	> 10 µM	9.33 µM	3.91 µM	5.66 µM	6.89 µM	2.62 µM	> 10 µM	9.45 µM		
Cc1cn(C2CC(N)C(C(=O)NCC(=O)O)O2)c(=O)[nH]c1=O (configuration not stated)	> 100 µM		> 100 µM	> 100 µM	> 100 µM					> 100 µM						> 100 µM		> 100 µM	
O=[N+]([O-])c1ccccc1S(=O)(=O)c1ccccc1	> 100 µM	> 100 µM	> 100 µM		> 100 µM	> 100 µM		> 100 µM										> 100 µM	
CC(=O)OCC1OC(OCCCCCCO)C(OC(C)=O)C(OC(C)=O)C1OC(C)=O (configuration not stated)	> 100 µM	> 100 µM	> 100 µM	> 100 µM	> 100 µM	> 100 µM		> 100 µM										> 100 µM	
CC1(C)C(=O)c2ccccc2OC1N1CCN(C2Oc3ccccc3C(=O)C2(C)C)CC1 (configuration not stated)	> 100 µM		> 100 µM	> 100 µM	> 100 µM					> 100 µM						> 100 µM		> 100 µM	
COc1ccc(-c2ccc(-c3ccc(C(=N)N)nc3)s2)cc1Cl			3.36 µM						1.77 µM	3.15 µM			1.75 µM					3.41 µM	1.63 µM
